Source: patent US10597388B2, “Pyridazinone herbicides” (FMC CORPORATION, priority 2014, dated 2020)

Key:
Test in all cases: Test C greenhouse herbicide test, pre- and postemergence
Format in all cases: in vivo
[1] = system: blackgrass (Alopecurus myosuroides)
Outline: (§1)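 Visual ratings on a 0 to 100 scale (0 = no effect, 100 = complete control) versus untreated controls, scored 13–15 d after treatment. Soil-applied preemergence to seeded loam/sand; foliar postemergence to 1- to 4-leaf plants (2–18 cm) in peat-vermiculite mix; compounds formulated in solvent plus surfactant.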

[2] = system: foxtail, giant (giant foxtail, Setaria faberii)
Outline: as §1

[3] = system: lambsquarters (Chenopodium album)
Outline: as §1

[4] = system: waterhemp (common waterhemp, Amaranthus rudis)
Outline: as §1

soybean (Glycine max) = system: soybean (Glycine max)
Outline: as §1

[5] = system: pigweed (Amaranthus retroflexus)
Outline: as §1

[6] = system: galium (catchweed bedstraw, Galium aparine)
Outline: as §1

[7] = system: velvetleaf (Abutilon theophrasti)
Outline: as §1

corn (Zea mays) = system: corn (Zea mays)
Outline: as §1

[8] = system: wheat (winter wheat, Triticum aestivum)
Outline: as §1

[9] = system: morningglory (Ipomoea coccinea)
Outline: as §1

[10] = system: johnsongrass (Sorghum halepense)
Outline: as §1

[11] = system: crabgrass, large (large crabgrass, Digitaria sanguinalis)
Outline: as §1

[12] = system: nutsedge, yellow (yellow nutsedge, Cyperus esculentus)
Outline: as §1

[13] = system: oilseed rape (Brassica napus)
Outline: as §1

[14] = system: ryegrass, Italian (Italian ryegrass, Lolium multiflorum)
Outline: as §1

[15] = Postemergence, 31 g ai/ha, 0 to 100 scale (0 no effect, 100 complete control)
[16] = Postemergence, 125 g ai/ha, scale 0 to 100, 0 is no effect, 100 is complete control
[17] = Postemergence, 250 g ai/ha, scale 0 to 100, 0 no effect, 100 complete control, 13 to 15 d
[18] = Preemergence, 31 g ai/ha, scale 0 to 100, 0 is no effect, 100 is complete control
[19] = Preemergence, 62 g ai/ha, scale 0 to 100, 0 is no effect, 100 is complete control
[20] = Preemergence, 125 g ai/ha, scale 0 to 100, 0 is no effect, 100 is complete control
[21] = Preemergence, 250 g ai/ha, scale 0 to 100 (0 no effect, 100 complete control)
[22] = postemergence, 62 g ai/ha, scale 0 to 100, 0 no effect, 100 complete control
[23] = Postemergence, 31 g ai/ha, scale 0 to 100 (0 no effect, 100 complete control)
[24] = Postemergence, 62 g ai/ha, 0 to 100 scale (0 no effect, 100 complete control)
[25] = Postemergence, 250 g ai/ha, scale 0 to 100, 0 is no effect, 100 is complete control
[26] = postemergence, 125 g ai/ha, scale 0 to 100, 0 no effect, 100 complete control

CCC(=O)Oc1c(C)nn(C)c(=O)c1-c1c(C)sc2c(C)cc(C)cc12 [Compound 28]
30: Plant response rating, Corn (corn (Zea mays); [20]) | Plant response rating, Johnsongrass [10, 17]
15: Plant response rating, Corn (corn (Zea mays); [17]) | Corn plant response rating (corn (Zea mays); [21])
0: Soybean plant response rating (soybean (Glycine max); [15]) | Plant response rating, Soybean (soybean (Glycine max); [16]) | Plant response rating, Soybean (soybean (Glycine max); [20]) | Soybean plant response rating (soybean (Glycine max); [22]) | Plant response rating, Corn (corn (Zea mays); [18]) | Plant response rating, Corn (corn (Zea mays); [19]) | Wheat plant response rating [8, 15] | Plant response rating, Wheat [8, 16] | Plant response rating, Wheat [8, 19] | Plant response rating, Wheat [8, 20] | Wheat plant response rating [8, 22] | Plant response rating, Johnsongrass [10, 18] | Plant response rating, Johnsongrass [10, 19] | Plant response rating, Oilseed Rape [13, 18]
98: Lambsquarters plant response rating [3, 22] | Plant response rating, Morningglory [9, 19] | Plant response rating, Morningglory [9, 20] | Morningglory plant response rating [9, 22]
85: Plant response rating, Blackgrass [1, 18] | Plant response rating, Foxtail, Giant [2, 16] | Plant response rating, Foxtail, Giant [2, 18] | Lambsquarters plant response rating [3, 15] | Plant response rating, Lambsquarters [3, 19] | Plant response rating, Lambsquarters [3, 20] | Plant response rating, Waterhemp [4, 16] | Plant response rating, Waterhemp [4, 17] | Plant response rating, Waterhemp [4, 20] | Pigweed plant response rating [5, 22] | Plant response rating, Velvetleaf [7, 16] | Plant response rating, Velvetleaf [7, 19] | Velvetleaf plant response rating [7, 22] | Crabgrass, Large plant response rating [11, 21] | Plant response rating, Nutsedge, Yellow [12, 16] | Plant response rating, Nutsedge, Yellow [12, 20] | Nutsedge, Yellow plant response rating [12, 22] | Plant response rating, Oilseed Rape [13, 20] | Plant response rating, Ryegrass, Italian [14, 18] | Ryegrass, Italian plant response rating [14, 22]
5: Plant response rating, Soybean (soybean (Glycine max); [17]) | Corn plant response rating (corn (Zea mays); [15]) | Plant response rating, Corn (corn (Zea mays); [16]) | Corn plant response rating (corn (Zea mays); [22]) | Plant response rating, Wheat [8, 17] | Johnsongrass plant response rating [10, 15] | Plant response rating, Johnsongrass [10, 20] | Johnsongrass plant response rating [10, 22] | Oilseed Rape plant response rating [13, 15] | Plant response rating, Oilseed Rape [13, 16]
95: Plant response rating, Foxtail, Giant [2, 17] | Plant response rating, Galium [6, 18] | Plant response rating, Galium [6, 19] | Plant response rating, Galium [6, 20] | Galium plant response rating [6, 21] | Velvetleaf plant response rating [7, 21] | Morningglory plant response rating [9, 15] | Plant response rating, Ryegrass, Italian [14, 17] | Plant response rating, Ryegrass, Italian [14, 20] | Ryegrass, Italian plant response rating [14, 21]
100: Plant response rating, Foxtail, Giant [2, 19] | Plant response rating, Foxtail, Giant [2, 20] | Foxtail, Giant plant response rating [2, 21] | Plant response rating, Lambsquarters [3, 16] | Plant response rating, Lambsquarters [3, 17] | Waterhemp plant response rating [4, 21] | Plant response rating, Pigweed [5, 18] | Plant response rating, Pigweed [5, 19] | Plant response rating, Pigweed [5, 20] | Pigweed plant response rating [5, 21] | Galium plant response rating [6, 15] | Plant response rating, Galium [6, 16] | Plant response rating, Galium [6, 17] | Galium plant response rating [6, 22] | Plant response rating, Morningglory [9, 16] | Plant response rating, Morningglory [9, 17] | Morningglory plant response rating [9, 21]
10: Wheat plant response rating [8, 21] | Johnsongrass plant response rating [10, 21]
20: Crabgrass, Large plant response rating [11, 22] | Plant response rating, Oilseed Rape [13, 19]
70: Blackgrass plant response rating [1, 22] | Velvetleaf plant response rating [7, 15] | Nutsedge, Yellow plant response rating [12, 21] | Plant response rating, Oilseed Rape [13, 17]
45: Plant response rating, Crabgrass, Large [11, 17]
50: Blackgrass plant response rating [1, 15] | Soybean plant response rating (soybean (Glycine max); [21]) | Plant response rating, Nutsedge, Yellow [12, 18]
40: Plant response rating, Crabgrass, Large [11, 16]
75: Plant response rating, Waterhemp [4, 19] | Waterhemp plant response rating [4, 22] | Nutsedge, Yellow plant response rating [12, 15] | Plant response rating, Nutsedge, Yellow [12, 19]
25: Plant response rating, Soybean (soybean (Glycine max); [19]) | Crabgrass, Large plant response rating [11, 15] | Plant response rating, Crabgrass, Large [11, 18]
80: Plant response rating, Blackgrass [1, 16] | Foxtail, Giant plant response rating [2, 22] | Plant response rating, Morningglory [9, 18] | Plant response rating, Crabgrass, Large [11, 20] | Ryegrass, Italian plant response rating [14, 15]
65: Plant response rating, Lambsquarters [3, 18]
90: Plant response rating, Blackgrass [1, 17] | Plant response rating, Blackgrass [1, 19] | Plant response rating, Blackgrass [1, 20] | Blackgrass plant response rating [1, 21] | Lambsquarters plant response rating [3, 21] | Plant response rating, Pigweed [5, 16] | Plant response rating, Pigweed [5, 17] | Plant response rating, Velvetleaf [7, 17] | Plant response rating, Velvetleaf [7, 20] | Plant response rating, Nutsedge, Yellow [12, 17] | Oilseed Rape plant response rating [13, 21] | Plant response rating, Ryegrass, Italian [14, 16] | Plant response rating, Ryegrass, Italian [14, 19]
60: Foxtail, Giant plant response rating [2, 15] | Waterhemp plant response rating [4, 15] | Pigweed plant response rating [5, 15] | Plant response rating, Crabgrass, Large [11, 19] | Oilseed Rape plant response rating [13, 22]

CC(=O)Oc1c(C)nn(C)c(=O)c1-c1c([N+](=O)[O-])ccc2ccccc12 [Compound 164]
10: Foxtail, Giant plant response rating [2, 24] | Soybean plant response rating (soybean (Glycine max); [26]) | Wheat plant response rating [8, 26] | Plant response rating, Johnsongrass [10, 25] | Plant response rating, Crabgrass, Large [11, 25] | Crabgrass, Large plant response rating [11, 26]
45: Plant response rating, Blackgrass [1, 25]
95: Galium plant response rating [6, 24]
90: Plant response rating, Galium [6, 23] | Plant response rating, Morningglory [9, 25] | Morningglory plant response rating [9, 26]
98: Plant response rating, Lambsquarters [3, 25]
15: Blackgrass plant response rating [1, 24] | Foxtail, Giant plant response rating [2, 26]
80: Pigweed plant response rating [5, 24] | Plant response rating, Morningglory [9, 23] | Ryegrass, Italian plant response rating [14, 26]
30: Plant response rating, Foxtail, Giant [2, 25]
20: Plant response rating, Wheat [8, 25] | Plant response rating, Nutsedge, Yellow [12, 23] | Nutsedge, Yellow plant response rating [12, 24]
25: Plant response rating, Velvetleaf [7, 23] | Velvetleaf plant response rating [7, 26] | Nutsedge, Yellow plant response rating [12, 26]
85: Lambsquarters plant response rating [3, 24] | Lambsquarters plant response rating [3, 26] | Plant response rating, Pigweed [5, 25] | Pigweed plant response rating [5, 26] | Morningglory plant response rating [9, 24] | Plant response rating, Ryegrass, Italian [14, 25]
100: Plant response rating, Galium [6, 25] | Galium plant response rating [6, 26]
50: Plant response rating, Ryegrass, Italian [14, 23]
5: Plant response rating, Blackgrass [1, 23] | Plant response rating, Foxtail, Giant [2, 23] | Plant response rating, Soybean (soybean (Glycine max); [25]) | Plant response rating, Corn (corn (Zea mays); [25]) | Corn plant response rating (corn (Zea mays); [26]) | Plant response rating, Wheat [8, 23] | Wheat plant response rating [8, 24] | Plant response rating, Johnsongrass [10, 23] | Johnsongrass plant response rating [10, 24] | Johnsongrass plant response rating [10, 26] | Crabgrass, Large plant response rating [11, 24]
75: Plant response rating, Waterhemp [4, 25]
0: Plant response rating, Soybean (soybean (Glycine max); [23]) | Soybean plant response rating (soybean (Glycine max); [24]) | Plant response rating, Corn (corn (Zea mays); [23]) | Corn plant response rating (corn (Zea mays); [24]) | Plant response rating, Crabgrass, Large [11, 23] | Plant response rating, Oilseed Rape [13, 23] | Oilseed Rape plant response rating [13, 24] | Plant response rating, Oilseed Rape [13, 25] | Oilseed Rape plant response rating [13, 26]
70: Plant response rating, Lambsquarters [3, 23] | Waterhemp plant response rating [4, 24] | Waterhemp plant response rating [4, 26] | Plant response rating, Pigweed [5, 23] | Plant response rating, Velvetleaf [7, 25]
60: Plant response rating, Waterhemp [4, 23] | Velvetleaf plant response rating [7, 24] | Ryegrass, Italian plant response rating [14, 24]
40: Blackgrass plant response rating [1, 26] | Plant response rating, Nutsedge, Yellow [12, 25]
